According to PMC5261566, “The AMPK Activator A769662 Blocks Voltage-Gated Sodium Channels: Discovery of a Novel Pharmacophore with Potential Utility for Analgesic Development” (PLoS ONE, 2017):

Molecular target: T1, Nav1.7 (hNav1.7) (Homo sapiens, UniProt Q15858, F1748A/Y1755A)
T1 construct: gene SCN9A; F1737A/Y1744A mutant hNav1.7 transiently expressed in HEK293 cells
Experiment: whole-cell patch clamp, % reduction of peak current at […]
Assay type: cell-based
Conditions: read-out: % block at 200 μM

T1 sequence (Q15858 whole entry F1748A/Y1755A): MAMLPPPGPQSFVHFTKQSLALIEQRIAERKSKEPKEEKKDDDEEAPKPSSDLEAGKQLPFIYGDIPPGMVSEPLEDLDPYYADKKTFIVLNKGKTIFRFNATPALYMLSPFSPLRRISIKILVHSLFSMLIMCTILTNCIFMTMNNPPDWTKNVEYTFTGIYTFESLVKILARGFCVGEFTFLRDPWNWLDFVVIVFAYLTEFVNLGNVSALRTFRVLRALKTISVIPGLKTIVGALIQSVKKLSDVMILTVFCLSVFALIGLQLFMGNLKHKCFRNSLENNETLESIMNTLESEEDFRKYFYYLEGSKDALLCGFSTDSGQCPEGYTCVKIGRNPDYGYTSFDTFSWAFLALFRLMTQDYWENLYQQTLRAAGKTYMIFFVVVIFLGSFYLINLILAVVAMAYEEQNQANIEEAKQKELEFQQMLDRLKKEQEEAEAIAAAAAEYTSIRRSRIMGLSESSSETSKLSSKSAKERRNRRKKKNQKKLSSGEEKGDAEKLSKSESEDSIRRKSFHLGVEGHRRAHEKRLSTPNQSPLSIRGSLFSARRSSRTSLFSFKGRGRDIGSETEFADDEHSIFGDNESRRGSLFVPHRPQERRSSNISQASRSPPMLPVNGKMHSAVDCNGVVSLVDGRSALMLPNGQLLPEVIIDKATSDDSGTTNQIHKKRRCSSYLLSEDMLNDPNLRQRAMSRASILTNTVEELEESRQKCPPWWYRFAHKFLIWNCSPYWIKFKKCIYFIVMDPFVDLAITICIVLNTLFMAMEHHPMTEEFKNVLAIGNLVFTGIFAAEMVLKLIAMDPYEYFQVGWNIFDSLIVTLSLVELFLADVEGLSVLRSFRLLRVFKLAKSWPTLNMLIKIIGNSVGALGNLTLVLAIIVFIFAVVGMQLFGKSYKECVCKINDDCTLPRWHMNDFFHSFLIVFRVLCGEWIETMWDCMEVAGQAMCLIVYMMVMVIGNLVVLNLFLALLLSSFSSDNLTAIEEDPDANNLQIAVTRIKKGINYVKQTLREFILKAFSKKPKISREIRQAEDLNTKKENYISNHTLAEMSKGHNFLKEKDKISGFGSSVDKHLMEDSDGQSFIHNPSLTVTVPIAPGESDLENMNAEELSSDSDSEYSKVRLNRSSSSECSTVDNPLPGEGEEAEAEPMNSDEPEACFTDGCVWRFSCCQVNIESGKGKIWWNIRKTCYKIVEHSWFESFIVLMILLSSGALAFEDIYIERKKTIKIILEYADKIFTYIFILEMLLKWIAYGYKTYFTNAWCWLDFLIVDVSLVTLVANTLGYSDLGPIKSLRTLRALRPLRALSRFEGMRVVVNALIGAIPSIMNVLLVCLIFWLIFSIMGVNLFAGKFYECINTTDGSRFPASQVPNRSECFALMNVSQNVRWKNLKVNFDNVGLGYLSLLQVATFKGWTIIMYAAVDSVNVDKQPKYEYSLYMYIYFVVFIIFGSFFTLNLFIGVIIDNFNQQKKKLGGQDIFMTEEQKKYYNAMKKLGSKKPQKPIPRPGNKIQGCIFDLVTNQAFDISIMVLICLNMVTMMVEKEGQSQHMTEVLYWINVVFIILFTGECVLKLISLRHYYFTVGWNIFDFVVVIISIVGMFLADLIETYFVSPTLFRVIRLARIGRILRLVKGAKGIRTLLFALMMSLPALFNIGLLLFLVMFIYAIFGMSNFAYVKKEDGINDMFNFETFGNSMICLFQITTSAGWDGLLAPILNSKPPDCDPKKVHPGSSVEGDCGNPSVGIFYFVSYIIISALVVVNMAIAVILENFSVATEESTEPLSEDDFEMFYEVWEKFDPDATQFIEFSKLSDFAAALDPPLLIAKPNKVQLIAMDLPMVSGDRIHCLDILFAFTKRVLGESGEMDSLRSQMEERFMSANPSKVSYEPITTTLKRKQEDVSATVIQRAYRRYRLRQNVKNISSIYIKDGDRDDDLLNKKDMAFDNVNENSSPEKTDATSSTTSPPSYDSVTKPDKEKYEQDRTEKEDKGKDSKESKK

inhibition at 200 µM: 38%
SMILES: N#Cc1c(O)c2c(-c3ccc(-c4ccccc4O)cc3)csc2[nH]c1=O [A769662]
